From the OPERA property sets (Mansouri et al. 2018)
Where a SMILES comes first, the peptide text is derived from it.

| SMILES | logP |
| --- | --- |
| CCOC(=O)C1=C(C)NC(C)=C(C(=O)OC)C1c1cc(OC)c(OC)c(OC)c1 (configuration not stated) | 3.39 |
| O=C1C=C(N2CC2)C(=O)C=C1N1CC1 | 0.18 |
| CN(C)CCC(c1ccccc1)c1ccccc1 | 4.31 |
| Cc1nc2c3c(c(C(=O)N(C)C)cn2c1Br)CCC(c1ccccc1)O3 (configuration not stated) | 3.4 |
| CN1CC(O)N(C(=O)NC2CCCCC2)C1=O (configuration not stated) | 1.87 |
| COc1ccc(CCNCC(O)COc2ccc(-c3nc(C)c(Cl)[nH]3)cc2)cc1OC (configuration not stated) | 3.9 |
| COCC(O)Cn1c(Br)cnc1[N+](=O)[O-] (configuration not stated) | 0.16 |
| C=C(Br)CON=C(C)c1cccc(Oc2nc(OC)cc(OC)n2)c1C(=O)OC | 3.73 |
| Cc1c(O)c(=O)ccn1CCCOC(=O)c1ccccc1O | 1.4 |
| O=C(Nc1ncc([N+](=O)[O-])s1)c1ccc(Cl)c(Cl)c1 | 4.14 |
| COc1ccc2cc(C(C)C(=O)OCCCCOC(C)=O)ccc2c1 (configuration not stated) | 3.3 |
| O=C(O)Cc1nn(Cc2nc3cc(C(F)(F)F)ccc3s2)c(=O)c2ccccc12 | 2.37 |
| C=CCC1C(=O)N(CCN(C)C)c2cccc(C(F)(F)F)c2CC1c1ccc(OC)cc1 (configuration not stated) | 6.6 |
| O=C1CNC(=O)C(Cc2c[nH]c3ccccc23)N1 (configuration not stated) | 0.07 |
| COc1ccc(C2Cc3c(ccc(Br)c3OC)N(CCN(C)C)C(=O)C2C)cc1 (configuration not stated) | 5.4 |
| COC(=O)C(C)NP(=O)(OCC1C=CC(n2cc(C)c(=O)[nH]c2=O)O1)Oc1ccc(C(F)(F)F)cc1 (configuration not stated) | 1.57 |
| CCC(=O)NCCCCCN(O)C(=O)CCC(=O)NCCCCCN(O)C(=O)CCC(=O)NCCCCCN(O)C(C)=O | 0.17 |
| CC(=O)c1c(C)nc2c3c(c(C(=O)N(C)C)cn12)CCC(c1ccccc1)O3 (configuration not stated) | 2.75 |
| CC(C)NCC(O)COc1ccc(Cc2nc(Br)c[nH]2)cc1 (configuration not stated) | 2.2 |
| CN1COCc2c1ccc1cc3ccc(N)c(CO)c3nc21 | 1.64 |
| CC(C)=CCNc1ncnc2nc[nH]c12 | 2.2 |
| NC1=NCC(COc2ccc(-c3ccccc3)cc2)O1 (configuration not stated) | 2.8 |
| Cc1c2ccoc2cc2oc(=O)ccc12 | 2.33 |

| SMILES | logP |
| --- | --- |
| COC(=O)CCSc1ccc2nc(-c3ccc(N(C)C)cc3)cn2c1 | 3.9 |
| COc1cc(OC)nc(Oc2cccc(C(F)(F)F)c2C(=O)O)n1 | 2.7 |
| C#CCCCCl | 1.85 |
| CNc1nc(NC)nc(NC(C)C)n1 | 1.87 |
| Cc1ccc(CO)c(C=NNC(=O)c2ccco2)c1O | 2.67 |
| CC(C)(O)C1CCC2(C)CCCC(=O)C2C1 (configuration not stated) | 1.92 |
| Cc1sc2cc3oc(=O)cc(C)c3cc2c1C | 3.48 |
| COc1ccc(C2Cc3c(C#N)cccc3N(CCN(C)C)C(=O)C2OC(C)=O)cc1 (configuration not stated) | 3.3 |
| CN(C)CCOc1cc2c(c3ccccc13)-c1ccccc1C2=O | 4.32 |
| CC(C)CC(NC(=O)C(NC(=O)C(N)C(C)O)C(C)C)C(=O)O (stereo not drawn) (H-Thr-Val-Leu-OH; configuration not given here) | -1.97 |
| S=c1[nH]nc(Cn2ccc3ccccc32)n1-c1ccccc1 | 2.68 |
| Clc1ccccc1CNc1ncnc2nc[nH]c12 | 2.76 |
| O=C1C=C(N2CCCC2)C(=O)N1c1ccc(F)cc1 | 2.3 |
| OCCCCCCCNc1[nH]cnc2ncnc1-2 | 1.73 |
| COc1nc(C)nc(Cl)c1NC1=NCCN1 | 0.9 |
| CCCC(=NOCC)C1=C(O)CC2(CCSCC2)OC1=O | 2.9 |
| CC(C)NC(=NC#N)NS(=O)(=O)c1cnccc1NCc1ccccc1 | 1.36 |
| OCCCNc1[nH]cnc2ncnc1-2 | 0.11 |
| CCc1c(O)c(=O)ccn1CCCCO | -0.28 |
| COc1ccc(CCNCC(O)COc2ccc(-c3nc(C(C)(C)C)c[nH]3)cc2)cc1OC (configuration not stated) | 4.09 |
| CC(=O)Nc1ccc(S(=O)(=O)Nc2nc(C)c(C)o2)cc1 | 0.46 |
| CCCCNc1ccncc1S(=O)(=O)NC(=NC#N)NC(C)C | 1.05 |
| CCCCOC1C(=O)NC(=O)NC1=[N+]=[N-] (configuration not stated) | -0.55 |

| SMILES | logP |
| --- | --- |
| COc1ccc(CCNCC(O)COc2ccc(-c3nc(Br)c[nH]3)cc2Cl)cc1OC (configuration not stated) | 4.3 |
| Nc1nc(N)c2c(Cl)cccc2n1 | 1.72 |
| c1ccc(N2CCN(CCCOn3nnc4ccccc43)CC2)cc1 | 3.49 |
| Brc1cc2cccc3ccc4cccc1c4c32 | 5.84 |
| CC(C)C(NC(=O)C(N)Cc1ccccc1)C(=O)NC(Cc1ccccc1)C(=O)O (stereo not drawn) (H-Phe-Val-Phe-OH; configuration not given here) | -0.76 |
| CCCCN(C)CC(=O)Nc1c(C)cccc1C | 2.74 |
| Cc1cc2c(nn1)-c1ccccc1C2=O | 1.58 |
| CCOP(=O)(OCC)C(C)(C)[N+]([O-])=Cc1ccc([N+](=O)[O-])cc1 | 1.43 |
| CCCCCOCCCNc1ncnc2c1ncn2C1OC(CO)C(O)C1O (configuration not stated) | 1.82 |
| S=C=NCCCCc1ccccc1 | 4 |
| Cc1nc2c3c(c(C(=O)NC4CC4)cn2c1C)CCC(c1ccccc1)O3 (configuration not stated) | 4 |
| c1ccc(Cn2cnc3ccccc32)cc1 | 2.91 |
| ON=Cc1nc(-c2cccs2)no1 | 2.47 |
| COc1cc(OC)nc(Oc2cccc(Oc3ccccc3)c2C(=O)O)n1 | 3.43 |
| OC(CCNC1CCCCC1)COc1cccc2ccccc12 (configuration not stated) | 3.99 |
| CC(C)C[C@H](NC(=O)[C@@H](N)CC(C)C)C(=O)O | -1.47 |
| Cc1sc2c(C)cc3c(C)cc(=O)oc3c2c1C | 4.09 |
| O=C1CCC(=O)N1c1ccc(Cl)c(Cl)c1 | 1.35 |
| O=c1cc(-c2ccc(Cl)cc2)oc2ccccc12 | 3.89 |
| CC1(C(Cl)Cl)C2CC(Cl)(Cl)C1(C(Cl)Cl)CC2(Cl)Cl (configuration not stated) | 5.9 |
| Cc1cccc(C)c1CCn1ccnc1 | 2.73 |
| CS(=O)c1ccc2c(c1)C(c1ccccc1)=NCC(=O)N2 (configuration not stated) | 0.8 |
| COc1ccc(C2Cc3c(cccc3[N+](=O)[O-])N(CCN(C)C)C(=O)C2OC(C)=O)cc1 (configuration not stated) | 3.7 |

| SMILES | logP |
| --- | --- |
| CCN1CCCC1CNC(=O)c1c(OC)ccc(OC)c1O (configuration not stated) | 2.82 |
| O=c1ccc(/C=C/c2ccc(-n3cnc4c3CCCC4)cc2)n[nH]1 | 2.47 |
| CCOC(=O)c1c[nH]c2ccccc12 | 3.04 |
| CCO[PH](=O)O | -2.7 |
| O=C(NC1CCCCC1)NS(=O)(=O)c1cnccc1NC1CCCCCCC1 | 4.96 |
| CC(=NNC(=S)N(C)C)c1cc(C)ccc1O | 2.26 |
| CCOC(=O)C(C)c1ccc2cc(OC)ccc2c1 (configuration not stated) | 3.51 |
| Cc1cc(Cl)c(C(C)C)c(Cl)c1Cl | 6.2 |
| Cn1ccnc1CC1COc2ccccc2O1 (configuration not stated) | 1.93 |
| CCOC(=O)c1cnc2ccc(C)cn2c1=O | 0.9 |
| COc1cccc(CCl)c1 | 2.68 |
| CC(NC(=O)C(Cc1ccccc1)NC(=O)C(N)Cc1c[nH]c2ccccc12)C(=O)O (stereo not drawn) (H-Trp-Phe-Ala-OH; configuration not given here) | -1 |
| CNc1ccc(-c2cn3cc(SC)ccc3n2)cc1 | 3.9 |
| CC(=NNC(=O)c1ccccc1)c1cnccn1 | 1.9 |
| Cc1nc2c3c(c(C(=O)N4CCCC4)cn2c1C)CCC(c1ccccc1)O3 (configuration not stated) | 3.6 |
| Nc1nc(N)c2c(OCc3ccccc3)cccc2n1 | 2.82 |
| OCCCNc1ncnc2c1ncn2C1OC(CO)C(O)C1O (configuration not stated) | -0.86 |
| C[N+](C)([O-])CC(c1ccccc1)c1ccccc1 | 1.01 |
| Cc1ccc(Cc2c[nH]cn2)cc1C | 2.72 |
| CCCCCCCOC(C)=O | 3.46 |
| COC(=O)C(C)NP(=O)(OCC1C=CC(n2cc(C)c(=O)[nH]c2=O)O1)Oc1ccc(Br)cc1 (configuration not stated) | 1.6 |
| CCCOc1cccc(NC(=O)OCCN2CCCCC2)c1 | 4.48 |
| CCCNC(=O)c1[nH]cc(-c2ccc(Cl)cc2)c1N1CCOCC1 | 4.2 |
